Results reported in ChEMBL document CHEMBL2396617, “Activity-lipophilicity relationship studies on P-gp ligands designed as simplified tariquidar bulky fragments” (Bioorg Med Chem Lett, 2013).
Active and inactive are the calls of the source. No cut-off for these calls is given here.

Tests used:
MDCK = assay: Activation of ATPase activity of P-glycoprotein (unknown origin) expressed in MDCK cells assessed as reduction of reduction of ATP level after 2 hrs by luminescence assay; type: cell-based; conditions: Homo sapiens
[1] = target: Multidrug resistance-associated protein 1 (Homo sapiens, UniProt P33527); assay: Inhibition of MRP1 (unknown origin) expressed in MDCK cells assessed as reduction of calcein-AM transport after 30 mins by fluorescence assay; type: cell-based
[2] = target: T1, Broad substrate specificity ATP-binding cassette transporter ABCG2 (Homo sapiens, UniProt Q9UNQ0); assay: Inhibition of BCRP (unknown origin) expressed in MDCK cells assessed as reduction of […] transport after 30 mins by fluorescence assay; type: cell-based
T1 sequence (Q9UNQ0 whole entry): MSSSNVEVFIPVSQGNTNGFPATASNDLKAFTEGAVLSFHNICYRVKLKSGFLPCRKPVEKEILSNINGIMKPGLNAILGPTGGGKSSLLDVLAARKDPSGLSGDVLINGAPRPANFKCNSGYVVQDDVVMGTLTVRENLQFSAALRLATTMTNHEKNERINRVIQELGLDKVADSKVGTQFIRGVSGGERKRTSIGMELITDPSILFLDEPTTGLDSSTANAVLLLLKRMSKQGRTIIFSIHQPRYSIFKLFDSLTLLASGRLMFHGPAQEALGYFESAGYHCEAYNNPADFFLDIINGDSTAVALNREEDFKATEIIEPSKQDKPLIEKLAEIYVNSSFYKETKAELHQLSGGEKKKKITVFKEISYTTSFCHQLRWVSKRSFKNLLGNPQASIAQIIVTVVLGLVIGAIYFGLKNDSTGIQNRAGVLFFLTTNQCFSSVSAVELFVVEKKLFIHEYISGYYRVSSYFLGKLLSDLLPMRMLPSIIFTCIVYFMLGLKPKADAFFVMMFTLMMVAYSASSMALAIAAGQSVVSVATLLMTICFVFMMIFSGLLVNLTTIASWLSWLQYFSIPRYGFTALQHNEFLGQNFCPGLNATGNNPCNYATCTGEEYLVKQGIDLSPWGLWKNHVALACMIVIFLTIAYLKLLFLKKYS

[3] = Inhibition of P-glycoprotein (unknown origin) expressed in MDCK cells assessed as reduction of calcein-AM transport after 30 mins by fluorescence assay; type: cell-based, Homo sapiens
[4] = P-glycoprotein-mediated transport in human Caco2 cells assessed as efflux ratio of apparent permeability from basolateral to apical over apical to basolateral after 120 mins; type: ADME, cell-based; conditions: caco-2, 2 h

Sequence of Multidrug resistance-associated protein 1 (P33527 whole entry): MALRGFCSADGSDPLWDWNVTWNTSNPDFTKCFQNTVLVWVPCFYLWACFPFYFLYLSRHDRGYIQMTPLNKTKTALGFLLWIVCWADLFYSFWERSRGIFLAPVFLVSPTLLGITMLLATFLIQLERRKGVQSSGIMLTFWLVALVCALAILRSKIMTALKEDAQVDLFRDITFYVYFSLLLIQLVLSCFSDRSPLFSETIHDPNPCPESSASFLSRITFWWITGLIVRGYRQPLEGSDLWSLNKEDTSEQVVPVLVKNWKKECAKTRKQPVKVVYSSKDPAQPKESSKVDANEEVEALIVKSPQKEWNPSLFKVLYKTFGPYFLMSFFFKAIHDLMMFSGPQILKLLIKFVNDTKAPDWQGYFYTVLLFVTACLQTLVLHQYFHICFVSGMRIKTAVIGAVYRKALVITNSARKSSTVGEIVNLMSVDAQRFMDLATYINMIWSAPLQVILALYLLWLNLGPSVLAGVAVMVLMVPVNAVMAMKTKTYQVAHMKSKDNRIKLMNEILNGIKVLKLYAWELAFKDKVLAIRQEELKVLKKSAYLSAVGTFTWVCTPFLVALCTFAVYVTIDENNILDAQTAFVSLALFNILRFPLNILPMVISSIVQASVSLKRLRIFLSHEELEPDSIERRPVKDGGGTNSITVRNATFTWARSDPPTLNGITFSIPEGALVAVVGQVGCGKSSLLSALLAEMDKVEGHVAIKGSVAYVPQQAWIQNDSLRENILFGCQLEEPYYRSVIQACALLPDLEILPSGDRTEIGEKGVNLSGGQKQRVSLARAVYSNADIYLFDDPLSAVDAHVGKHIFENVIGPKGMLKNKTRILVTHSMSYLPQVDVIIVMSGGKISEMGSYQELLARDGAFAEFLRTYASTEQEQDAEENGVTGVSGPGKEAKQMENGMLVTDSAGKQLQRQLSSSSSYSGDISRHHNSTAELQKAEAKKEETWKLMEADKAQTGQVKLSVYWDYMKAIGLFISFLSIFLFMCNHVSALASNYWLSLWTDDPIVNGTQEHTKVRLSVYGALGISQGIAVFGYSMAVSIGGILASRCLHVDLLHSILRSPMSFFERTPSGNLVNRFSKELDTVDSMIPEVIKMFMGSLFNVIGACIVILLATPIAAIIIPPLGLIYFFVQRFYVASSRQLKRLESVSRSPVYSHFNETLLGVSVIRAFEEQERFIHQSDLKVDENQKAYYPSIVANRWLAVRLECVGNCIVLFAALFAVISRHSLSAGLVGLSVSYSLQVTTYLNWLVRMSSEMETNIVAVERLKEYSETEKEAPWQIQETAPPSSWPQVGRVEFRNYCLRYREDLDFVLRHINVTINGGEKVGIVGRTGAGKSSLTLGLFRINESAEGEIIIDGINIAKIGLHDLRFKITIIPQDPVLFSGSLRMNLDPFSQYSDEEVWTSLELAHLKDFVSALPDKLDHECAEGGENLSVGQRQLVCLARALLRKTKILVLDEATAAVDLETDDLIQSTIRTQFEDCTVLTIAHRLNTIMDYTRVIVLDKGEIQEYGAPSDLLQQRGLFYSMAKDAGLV

EC50 [1] [µM] | EC50 [2] [µM] | EC50 [3] [µM] | Ratio [4] | SMILES | Activity (MDCK)
> 100 | > 100 | 6.1 | 4.4 | COc1cc2c(cc1OC)CN(CCCOc1ccc3ccccc3n1)CC2 | inactive
> 100 | > 100 | 40 | – | COc1cc2c(cc1OC)CN(CCCOc1ccnc3ccccc13)CC2 | inactive
> 100 | > 100 | 1.3 | 4.6 | COc1cc2c(cc1OC)CN(CCOc1ccc3ccccc3n1)CC2 | inactive

More lines, now with the values behind:

SMILES | EC50 [1] [µM] | EC50 [2] [µM] | EC50 [3] [µM] | Ratio [4] | Activity (MDCK)
COc1cc2c(cc1OC)CN(C(=O)COc1ccc3ccccc3n1)CC2 | > 100 | > 100 | 67 | – | inactive
COc1cc2c(cc1OC)CN(CCCCCOc1ccc3ccccc3n1)CC2 | > 100 | > 100 | 1.2 | 2.9 | inactive
COc1cc2c(cc1OC)CN(CCCCOc1ccc3ccccc3n1)CC2 | > 100 | > 100 | 4.3 | 4.2 | inactive
